How the values were obtained:
Assay type in all cases: in vivo
[1] = tested on: Spodoptera littoralis (Egyptian Cotton Leaf Worm); assay: Example B1: Activity against Spodoptera littoralis, sprayed cotton leaf discs; conditions: foliar, 72 h, application rate 200 ppm, L1 larvae on cotton leaf discs, 3 days after infestation, read-out: control (at least one of mortality, anti-feedant effect, growth inhibition)
Description: Cotton leaf discs were placed onto agar in 24-well microtiter plates and sprayed with aqueous test solutions prepared from 10′000 ppm DMSO stock solutions. After drying the leaf discs were infested with five L1 larvae. The samples were assessed for mortality, anti-feeding effect, and growth inhibition in comparison to untreated samples 3 days after infestation. Control of Spodoptera littoralis by a test sample is given when at least one of the categories mortality, anti-feedant effect, and growth inhibition is higher than the untreated sample.

[2] = tested on: Spodoptera littoralis (Egyptian Cotton Leaf Worm); assay: Example B2: Activity against Spodoptera littoralis, systemic via lettuce roots in agar; conditions: 144 h, test rate 12.5 ppm, lettuce root uptake, 6 days after infestation, read-out: effect in at least one of the three categories (mortality, anti-feeding, or growth inhibition)
Excerpt: Test compounds were applied by pipette from 10′000 ppm DMSO stock solutions into 24-well plates and mixed with agar. Lettuce seeds were placed onto the agar and the multi well plate was closed by another plate which contained also agar. After 7 days the compound was absorbed by the roots and the lettuce grew into the lid plate. The lettuce leaves were then cut off into the lid plate. Spodoptera eggs were pipetted through a plastic stencil onto a humid gel blotting paper and the lid plate was closed with it. The samples were assessed for mortality, anti-feedant effect and growth inhibition in comparison to untreated samples 6 days after infestation.

[3] = tested on: Plutella xylostella (Diamond Back Moth); assay: Example B3: Activity against Plutella xylostella, artificial diet, L2 larvae; conditions: 120 h, application rate 200 ppm, L2 larvae on artificial diet, 5 days after infestation, read-out: effect in at least one of the two categories (mortality or growth inhibition)
Description: (§1) 24-well microtiter plates with artificial diet were treated with aqueous test solutions prepared from 10′000 ppm DMSO stock solutions by pipetting. After drying, the plates were infested with L2 larvae (10 to 15 per well). The samples were assessed for mortality and growth inhibition in comparison to untreated samples 5 days after infestation.

[4] = tested on: Diabrotica balteata (Corn Root Worm); assay: Example B4: Activity against Diabrotica balteata, sprayed maize sprouts; conditions: 96 h, application rate 200 ppm, L2 larvae on maize sprouts, 4 days after infestation, read-out: effect in at least one of the two categories (mortality or growth inhibition)
Description: as §1, with “Maize sprouts placed onto an agar layer in 24-well” for “24-well”, “plates” for “plates with artificial diet”, “spraying.” for “pipetting.”, “(6” for “(10”, “10” for “15”, “4” for “5”

[5] = tested on: Myzus persicae (Green Peach Aphid); assay: Example B5: Activity against Myzus persicae, sprayed sunflower leaf discs; conditions: foliar, 144 h, application rate 200 ppm, mixed-age aphids on sunflower leaf discs, 6 days after infestation
Description: (§2) Sunflower leaf discs were placed on agar in a 24-well microtiter plate and sprayed with aqueous test solutions prepared from 10′000 ppm DMSO stock solutions. After drying, the leaf discs were infested with an aphid population of mixed ages. The samples were assessed for mortality 6 days after infestation.

[6] = tested on: Myzus persicae (Green Peach Aphid); assay: Example B6: Activity against Myzus persicae, systemic via roots of pea seedlings; conditions: 144 h, test rate 24 ppm, pea seedling roots in test solution, 6 days
Description: Roots of pea seedlings infested with an aphid population of mixed ages were placed directly in the aqueous test solutions prepared from 10′000 DMSO stock solutions. The samples were assessed for mortality 6 days after placing seedlings in test solutions.

[7] = tested on: Bemisia tabaci (Cotton White Fly); assay: Example B7: Activity against Bemisia tabaci, sprayed cotton leaf discs; conditions: foliar, 144 h, application rate 200 ppm, adult white flies on cotton leaf discs, 6 days after incubation
Description: Cotton leaf discs were placed on agar in 24-well microtiter plates and sprayed with aqueous test solutions prepared from 10′000 ppm DMSO stock solutions. After drying the leaf discs were infested with adult white flies. The samples were checked for mortality 6 days after incubation.

[8] = tested on: Frankliniella occidentalis (Western Flower Thrips); assay: Example B8: Activity against Frankliniella occidentalis, sprayed sunflower leaf discs; conditions: foliar, 168 h, application rate 200 ppm, mixed ages on sunflower leaf discs, 7 days after infestation
Description: as §2, with “in” for “in a”, “plates” for “plate”, “[…]” for “10′000 ppm”, “drying” for “drying,”, “a Frankliniella” for “an aphid”, “7” for “6”

[9] = tested on: Euschistus heros (Neotropical Brown Stink Bug); assay: Example B9: Activity against Euschistus heros, sprayed soybean leaf; conditions: 120 h, application rate 200 ppm, N2 nymphs on soybean leaf, 5 days after infestation, read-out: effect in at least one of the two categories (mortality or growth inhibition)
Description: Soybean leaf on agar in 24-well microtiter plates were sprayed with aqueous test solutions prepared from 10′000 ppm DMSO stock solutions. After drying the leaf were infested with N2 nymphs. The samples were assessed for mortality and growth inhibition in comparison to untreated samples 5 days after infestation.

[10] = tested on: Aedes aegypti (Yellow Fever Mosquito); assay: Example B11: Activity against Aedes aegypti, dry deposit in tissue culture plates; conditions: 200 ppm in ethanol; adult females; after 48 h and/or 24 h
Description: Test solutions, at an application rate of 200 ppm in ethanol, were applied to 12 well tissue culture plates. Once the deposits were dry, five, two to five day old adult female Aedes aegypti were added to each well, and sustained with a 10% sucrose solution in a cotton wool plug. Assessment of knockdown was made one hour after introduction, and mortality was assessed at 24 and 48 hours after introduction.

[11] = tested on: Tetranychus urticae (Two-Spotted Spider Mite); assay: Example B10: Activity against Tetranychus urticae, sprayed bean leaf discs; conditions: foliar, 192 h
Description: Bean leaf discs on agar in 24-well microtiter plates were sprayed with aqueous test solutions prepared from 10′000 ppm DMSO stock solutions. After drying the leaf discs were infested with a mite population of mixed ages. The samples were assessed for mortality on mixed population (mobile stages) 8 days after infestation.

Q: Which percent control (mortality, anti-feedant effect or growth inhibition) at 200 ppm [1] does the source give for CCn1c(=O)n(C)c2cc(-c3nc4cc(C(F)(F)F)cnc4n3C)c(S(=O)(=O)CC)cc21 [Compound P5, 1-ethyl-6-ethylsulfonyl-3-methyl-5-[3-methyl-6-(trifluoromethyl)imidazo[4,5-b]pyridin-2-yl]benzimidazol-2-one] here?
A: ≥ 80%

Q: What about the percent effect (mortality, anti-feeding or growth inhibition) at 12.5 ppm [2] of the same compound?
A: ≥ 80%

Q: And the percent effect (mortality or growth inhibition) at 200 ppm [3]?
A: ≥ 80%

Q: And the percent effect (mortality or growth inhibition) at 200 ppm [4]?
A: ≥ 80%

Q: And the mortality at 200 ppm [5]?
A: ≥ 80%

Q: And the mortality at 24 ppm [6]?
A: ≥ 80%

Q: And the mortality at 200 ppm [7]?
A: ≥ 80%

Q: What about the mortality at 200 ppm [8] of the same compound?
A: ≥ 80%

Q: And the percent effect (mortality or growth inhibition) at 200 ppm [9]?
A: ≥ 80%

Q: With CCS(=O)(=O)c1cc2c(cc1-c1nc3cc(C(F)(F)F)cnc3n1C)n(C)c(=O)n2C [Compound P3, 5-ethylsulfonyl-1,3-dimethyl-6-[3-methyl-6-(trifluoromethyl)imidazo[4,5-b]pyridin-2-yl]benzimidazol-2-one] as the compound, how does the percent control (mortality, anti-feedant effect or growth inhibition) at 200 ppm [1] read?
A: ≥ 80%

Q: And the percent effect (mortality, anti-feeding or growth inhibition) at 12.5 ppm [2]?
A: ≥ 80%

Q: And the percent effect (mortality or growth inhibition) at 200 ppm [3]?
A: ≥ 80%

Q: And the percent effect (mortality or growth inhibition) at 200 ppm [4]?
A: ≥ 80%

Q: And the mortality at 200 ppm [5]?
A: ≥ 80%

Q: And the mortality at 24 ppm [6]?
A: ≥ 80%

Q: And the mortality at 200 ppm [7]?
A: ≥ 80%

Q: And the mortality at 200 ppm [8]?
A: ≥ 80%

Q: What about the percent effect (mortality or growth inhibition) at 200 ppm [9] of the same compound?
A: ≥ 80%

Q: What about the “control of Aedes aegypti” value [10] of the same compound?
A: at least 80%

Q: Which results are given for CCn1c(=O)n(C)c2cc(S(=O)(=O)CC)c(-c3nc4cc(C(F)(F)F)cnc4n3C)cc21 [Compound P6, 1-ethyl-5-ethylsulfonyl-3-methyl-6-[3-methyl-6-(trifluoromethyl)imidazo[4,5-b]pyridin-2-yl]benzimidazol-2-one]?
A: percent control (mortality, anti-feedant effect or growth inhibition) at 200 ppm [1]: ≥ 80%; percent effect (mortality or growth inhibition) at 200 ppm [3]: ≥ 80%; percent effect (mortality or growth inhibition) at 200 ppm [4]: ≥ 80%; mortality at 200 ppm [5]: ≥ 80%; mortality at 24 ppm [6]: ≥ 80%; mortality at 200 ppm [7]: ≥ 80%; percent effect (mortality or growth inhibition) at 200 ppm [9]: ≥ 80%; mortality at 200 ppm [11]: ≥ 80%
